In US20050215543A1, “Methods of treating HIV infection” (priority 2004, published 2005):

Tests used:
HIV-1 LAI [1] = experiment: Drug susceptibility assay, MT-2 cells infected with HIV-1 LAI, MTS assay readout (samples involving non-nucleoside RT inhibitors); type: cell-based; conditions: for EC50: Human immunodeficiency virus 1, MT2, 120 h, single drug, MT-2 cells, HIV-1 LAI, MOI 0.005, 5 days, MTS assay (non-nucleoside RT inhibitors); for Combination Indices at % HIV Inhibition (Confidence Interval) 50%: 50% HIV inhibition; for Combination Indices at % HIV Inhibition (Confidence Interval) 50% / Combination Indices at % HIV Inhibition (Confidence Interval) 75% / Combination Indices at % HIV Inhibition (Confidence Interval) 90%: MTS readout, 95% CI in parenthesis; for Combination Indices at % HIV Inhibition (Confidence Interval) 75%: 75% HIV inhibition; for Combination Indices at % HIV Inhibition (Confidence Interval) 90%: 90% HIV inhibition; for Overall Result: two-drug combination with Compound 1, all ratios and effect levels, MT-2/HIV-1 LAI, MTS assay
Description: (§1) Virus and cell lines. The T-cell lines, MT-2 and PM-1 were obtained through the AIDS Research and Reference Reagent Program, NIAID, and were contributed by Dr. D. Richman and Dr. R. Gallo, respectively. Both cell lines were cultured in RPMI 1640 medium supplemented with 10% fetal bovine serum, 2 mM L-glutamine and sub-cultured twice a week. The LAI strain of HIV-1 was obtained from the Fred Hutchinson Cancer Research Center, and the Bal strain was from NIH. Both virus stocks were amplified and titered in MT-2 cells (LAI) and PM-1 cells (Bal) using a virus infectivity assay.
(§2) Drug Susceptibility and Cytotoxicity Assays. For drug susceptibility assays, MT-2 cells were infected with HIV-1 LAI (or PM-1 cells with HIV-1 Bal) at an MOI of 0.005, and seeded into 96-well microtiter plates (0.1×10^6 cells/ml) containing serial dilutions of test compounds. […] Each drug ratio consisted of an array of 3-fold serial dilutions, and was performed in quadruplicate. The plates were incubated at 37° C./5% CO2. The MT-2 cells infected with HIV-1 LAI were incubated for 5 days. On day-five post-infection, 20 μl from each well was harvested and quantitated by a reverse transcriptase (RT) assay, or in samples involving non-nucleoside RT inhibitors, an MTS assay. The PM-1 cells infected with HIV-1 Bal and used for studying the combinations with CCR5 inhibitors were incubated for six days. On day-six post-infection, 20 μl from each well was harvested, 20- and 50-fold diluted and quantitated by p24 assay. Cytotoxicity assays were performed using uninfected cells, exposed to the same drug combinations, and incubated for six days. Cell viability was determined by an XTT assay. The CC50 values were calculated by using the exponential form of the median effect equation as mentioned below for calculation of EC50.
(§3) Analysis of Drug Combination Effects. For determination of CI values, drugs were diluted in a fixed ratio and multiple ratios were analyzed. The drug serial dilutions spanned a range of concentrations near the EC50 value of each compound, so that equivalent antiviral activities could be compared. Concentration-response curves were estimated for each individual drug and every combination using the median-effect equation. The equation was fit using a nonlinear regression routine (Proc Nlin) in PC SAS version 8.01 (SAS Institute Inc., SAS Version 8.01, Cary, N.C.: SAS Institute Inc., 1990).
(§4) In this equation, Fa stands for “fraction affected,” and represents the fraction of the viral load that has been inactivated. […] ED50 is drug concentration that is expected to reduce the amount of virus by 50%, and m is a parameter that reflects the slope of the concentration-response curve.
(§5) To assess antiviral effects of different drug combination treatments, combination indices (CIs) were calculated according to Chou and Rideout. The combination index was computed as CI=[D]1/[Dm]1+[D]2/[Dm]2
(§6) In this equation [Dm]1 and [Dm]2 are the concentrations of drugs that would individually produce a specific level of effect, while [D]1 and [D]2 are the concentrations of drugs in combination that would produce the same level of effect.
(§7) Theoretically, additivity is implied if the CI is equal to one, synergy if the CI is less than one, and antagonism if the CI is greater than one. […] At best, we can construct a range that contains the likely values for the CI, given the noise in the data. In this report, these ranges are reported in parentheses next to each point estimate of the CI. […] If the range fell entirely above 1.0, we would infer antagonistic behavior. If the range were to include 1.0, we would infer additivity.
(§8) In carrying out the combination experiments below, the EC50 for Compound 1 and each comparator compound was determined during the course of each study, and used in the subsequent data analysis.

HIV-1 Bal = experiment: Drug susceptibility assay, PM-1 cells infected with HIV-1 Bal, p24 assay readout (combinations with CCR5 inhibitors); type: cell-based; conditions: for Combination Indices at % HIV Inhibition (Confidence Interval) 50%: 50% HIV inhibition; for Combination Indices at % HIV Inhibition (Confidence Interval) 50% / Combination Indices at % HIV Inhibition (Confidence Interval) 75% / Combination Indices at % HIV Inhibition (Confidence Interval) 90% / Overall Result: PM-1/HIV-1 Bal; for Combination Indices at % HIV Inhibition (Confidence Interval) 50% / Combination Indices at % HIV Inhibition (Confidence Interval) 75% / Combination Indices at % HIV Inhibition (Confidence Interval) 90%: p24, 95% CI in parenthesis; for Combination Indices at % HIV Inhibition (Confidence Interval) 75%: 75% HIV inhibition; for Combination Indices at % HIV Inhibition (Confidence Interval) 90%: 90% HIV inhibition; for EC50: single drug, PM-1 cells, HIV-1 Bal, MOI 0.005, 6 days, p24 assay (CCR5 inhibitors); for Overall Result: two-drug combination with Compound 1, all ratios and effect levels, p24 assay
Description: as §1, §2, §3, §4, §5, §6, §7, §8

HIV-1 LAI [2] = experiment: microbe, parasite or virus in culture; conditions: for Combination Indices at % HIV Inhibition (Confidence Interval) 50%: 50% HIV inhibition; for Combination Indices at % HIV Inhibition (Confidence Interval) 50% / Combination Indices at % HIV Inhibition (Confidence Interval) 75% / Combination Indices at % HIV Inhibition (Confidence Interval) 90%: 95% CI in parenthesis; for Combination Indices at % HIV Inhibition (Confidence Interval) 75%: 75% HIV inhibition; for Combination Indices at % HIV Inhibition (Confidence Interval) 90%: 90% HIV inhibition
Description: as §1, §2, §3, §4, §5, §6, §7, §8

[3] = combination with Compound 1, EC50 ratio 1:1
[4] = combination with Compound 1, EC50 ratio 1:2.5
[5] = combination with Compound 1, EC50 ratio 2.5:1

EC50 (HIV-1 LAI [1]) | Structure (SMILES) | Combination Indices at % HIV Inhibition (Confidence Interval) 50% (HIV-1 LAI [1]; [3]) | Combination Indices at % HIV Inhibition (Confidence Interval) 75% (HIV-1 LAI [1]; [3]) | Combination Indices at % HIV Inhibition (Confidence Interval) 90% (HIV-1 LAI [1]; [3]) | Combination Indices at % HIV Inhibition (Confidence Interval) 50% (HIV-1 LAI [1]; [4]) | Combination Indices at % HIV Inhibition (Confidence Interval) 75% (HIV-1 LAI [1]; [4]) | Combination Indices at % HIV Inhibition (Confidence Interval) 90% (HIV-1 LAI [1]; [4]) | Combination Indices at % HIV Inhibition (Confidence Interval) 50% (HIV-1 LAI [1]; [5]) | Combination Indices at % HIV Inhibition (Confidence Interval) 75% (HIV-1 LAI [1]; [5]) | Combination Indices at % HIV Inhibition (Confidence Interval) 90% (HIV-1 LAI [1]; [5]) | Overall Result (HIV-1 LAI [1]) | Combination Indices at % HIV Inhibition (Confidence Interval) 50% (HIV-1 Bal; [3]) | Combination Indices at % HIV Inhibition (Confidence Interval) 75% (HIV-1 Bal; [3]) | Combination Indices at % HIV Inhibition (Confidence Interval) 90% (HIV-1 Bal; [3]) | Combination Indices at % HIV Inhibition (Confidence Interval) 50% (HIV-1 Bal; [4]) | Combination Indices at % HIV Inhibition (Confidence Interval) 75% (HIV-1 Bal; [4]) | Combination Indices at % HIV Inhibition (Confidence Interval) 90% (HIV-1 Bal; [4]) | Combination Indices at % HIV Inhibition (Confidence Interval) 50% (HIV-1 Bal; [5]) | Combination Indices at % HIV Inhibition (Confidence Interval) 75% (HIV-1 Bal; [5]) | Combination Indices at % HIV Inhibition (Confidence Interval) 90% (HIV-1 Bal; [5]) | also measured
1.6 nM | CC(C)Nc1cccnc1N1CCN(C(=O)c2cc3cc(NS(C)(=O)=O)ccc3[nH]2)CC1 [Delavirdine, delavirdine] | 0.11 (0.00, 0.26) | 0.09 (0.02, 0.15) | 0.09 (0.00, 0.21) | 0.32 (0.20, 0.43) | 0.09 (0.08, 0.10) | 0.03 (0.02, 0.03) | 0.28 (0.22, 0.35) | 0.17 (0.14, 0.20) | 0.16 (0.11, 0.35) | Synergistic | – | – | – | – | – | – | – | – | – | Overall Result (HIV-1 LAI [1]; listed as delavirdine): strong synergistic effects
– | CCO/N=C(\c1ccc(Br)cc1)C1CCN(C2(C)CCN(C(=O)c3c(C)cc[n+]([O-])c3C)CC2)CC1 [Sch-C] | – | – | – | – | – | – | – | – | – | – | 0.63 (0.51, 0.74) | 0.70 (0.52, 0.89) | 0.80 (0.46, 1.13) | 0.49 (0.41, 0.58) | 0.65 (0.49, 0.80) | 0.86 (0.52, 1.19) | 0.24 (0.19, 0.28) | 0.36 (0.27, 0.45) | 0.55 (0.31, 0.79) | EC50 (HIV-1 Bal): 3 nM; Overall Result (HIV-1 Bal): moderate synergistic to synergistic
0.06 nM | O=C1Nc2ccc(Cl)cc2[C@@](C#CC2CC2)(C(F)(F)F)O1 [Efavirenz, efavirenz] | 0.71 (0.50, 0.91) | 0.64 (0.38, 0.90) | 0.64 (0.22, 1.06) | 0.23 (0.17, 0.29) | 0.23 (0.17, 0.30) | 0.25 (0.12, 0.38) | 0.58 (0.45, 0.70) | 0.47 (0.32, 0.61) | 0.46 (0.23, 0.69) | Synergistic | – | – | – | – | – | – | – | – | – | Overall Result (HIV-1 LAI [1]; listed as efavirenz): strong synergistic effects
– | COC[C@@H](c1ccc(C(F)(F)F)cc1)N1CCN(C2(C)CCN(C(=O)c3c(C)ncnc3C)CC2)C[C@@H]1C [Sch-D] | – | – | – | – | – | – | – | – | – | – | 0.49 (0.43, 0.55) | 0.41 (0.34, 0.49) | 0.36 (0.26, 0.46) | 0.71 (0.62, 0.81) | 0.55 (0.44, 0.65) | 0.44 (0.31, 0.57) | 0.51 (0.45, 0.56) | 0.55 (0.47, 0.63) | 0.61 (0.46, 0.75) | EC50 (HIV-1 Bal): 0.5 nM; Overall Result (HIV-1 Bal): moderate synergistic to synergistic
63 nM | Cc1ccnc2c1NC(=O)c1cccnc1N2C1CC1 [Nevirapine, nevirapine] | 0.87 (0.79, 0.94) | 0.80 (0.69, 0.90) | 0.74 (0.58, 0.89) | 0.85 (0.74, 0.96) | 0.68 (0.58, 0.79) | 0.55 (0.43, 0.66) | 0.71 (0.62, 0.81) | 0.63 (0.52, 0.73) | 0.56 (0.42, 0.70) | Synergistic | – | – | – | – | – | – | – | – | – | Overall Result (HIV-1 LAI [1]; listed as nevirapine): strong synergistic effects
– | c1cc(CN2CCCNCCNCCCNCC2)ccc1CN1CCCNCCNCCCNCC1 [AMD-3100] | – | – | – | – | – | – | – | – | – | – | – | – | – | – | – | – | – | – | – | EC50 (HIV-1 LAI [2]; Human immunodeficiency virus 1, MT2, 120 h): 8 nM; Combination Indices at % HIV Inhibition (Confidence Interval) 50% (HIV-1 LAI [2]; combination with Compound 1, EC50 ratio 1:1 (Compound 1:comparator)): 0.40 (0.34, 0.46); Combination Indices at % HIV Inhibition (Confidence Interval) 75% (HIV-1 LAI [2]; [3]): 0.27 (0.21, 0.33); Combination Indices at % HIV Inhibition (Confidence Interval) 90% (HIV-1 LAI [2]; [3]): 0.18 (0.12, 0.24); Combination Indices at % HIV Inhibition (Confidence Interval) 50% (HIV-1 LAI [2]; [4]): 0.25 (0.21, 0.29); Combination Indices at % HIV Inhibition (Confidence Interval) 75% (HIV-1 LAI [2]; [4]): 0.14 (0.11, 0.17); Combination Indices at % HIV Inhibition (Confidence Interval) 90% (HIV-1 LAI [2]; [4]): 0.08 (0.05, 0.10); Combination Indices at % HIV Inhibition (Confidence Interval) 50% (HIV-1 LAI [2]; [5]): 0.15 (0.11, 0.20); Combination Indices at % HIV Inhibition (Confidence Interval) 75% (HIV-1 LAI [2]; [5]): 0.28 (0.18, 0.38); Combination Indices at % HIV Inhibition (Confidence Interval) 90% (HIV-1 LAI [2]; [5]): 0.51 (0.20, 0.83)
